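Step 1: Grow cells in 96-well plates. Step 2: Expose to compound for 48 hours at 5 concentrations. Step 3: Interpolate endpoints linearly; if unreached, use highest concentration. GI50 marks 50% less growth.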 Active and inactive are the calls of the source. Rule as the data show it: active = GI50 up to about 1.1 µM and inactive = higher.
Columns and labels:
Experiment in all cases: NCI tumour cell line growth inhibition, 48 h
BT-549 = test system: BT-549
CCRF-CEM = test system: CCRF-CEM
COLO 205 = test system: COLO 205
EKVX = test system: EKVX
HL-60 = test system: HL-60
HOP-92 = test system: HOP-92
HT-29 = test system: HT-29
LOX IMVI = test system: LOX IMVI
MOLT-4 = test system: MOLT-4
Malme-3M = test system: Malme-3M
NCI-H226 = test system: NCI-H226
NCI-H23 = test system: NCI-H23
NCI-H460 = test system: NCI-H460
NCI-H522 = test system: NCI-H522
OVCAR-4 = test system: OVCAR-4
OVCAR-8 = test system: OVCAR-8
RPMI-8226 = test system: RPMI-8226
SNB-75 = test system: SNB-75
TK-10 = test system: TK-10
UO-31 = test system: UO-31

Measured: GI50

Cn1c2c(c3ccccc31)CC1c3c(c4ccccc4n3C)CC21 (configuration not stated)
inactive: BT-549 > 100 µM | CCRF-CEM > 100 µM | COLO 205 > 100 µM | EKVX > 100 µM | HL-60 > 100 µM | HOP-92 > 100 µM | HT-29 > 100 µM | LOX IMVI > 100 µM | MOLT-4 > 100 µM | Malme-3M > 100 µM | NCI-H226 > 100 µM | NCI-H23 > 100 µM | NCI-H460 > 100 µM | NCI-H522 > 100 µM | OVCAR-4 > 100 µM | OVCAR-8 > 100 µM | RPMI-8226 > 100 µM | SNB-75 > 100 µM | TK-10 > 100 µM | UO-31 > 100 µM

NN=C(CC(O)(C(F)(F)Cl)C(F)(F)Cl)CC(O)(C(F)(F)Cl)C(F)(F)Cl
inactive: BT-549 > 10 µM | CCRF-CEM > 10 µM | COLO 205 > 10 µM | EKVX > 10 µM | HL-60 > 10 µM | HOP-92 > 10 µM | HT-29 > 10 µM | LOX IMVI > 10 µM | MOLT-4 > 10 µM | Malme-3M > 10 µM | NCI-H226 > 10 µM | NCI-H23 > 10 µM | NCI-H460 > 10 µM | NCI-H522 > 10 µM | OVCAR-4 > 10 µM | OVCAR-8 > 10 µM | RPMI-8226 > 10 µM | SNB-75 > 10 µM | TK-10 > 10 µM

Cc1cc(S(=O)(=O)Nc2cc(N)n[nH]2)c(SCc2nc(N)nc(N(C)C)n2)cc1Cl
inactive: BT-549 > 10 µM | CCRF-CEM > 10 µM | COLO 205 > 10 µM | EKVX > 10 µM | HL-60 > 10 µM | HOP-92 > 10 µM | HT-29 > 10 µM | LOX IMVI > 10 µM | MOLT-4 > 10 µM | Malme-3M > 10 µM | NCI-H226 > 10 µM | NCI-H23 > 10 µM | NCI-H460 > 10 µM | NCI-H522 > 10 µM | OVCAR-4 > 10 µM | OVCAR-8 > 10 µM | RPMI-8226 > 10 µM | SNB-75 > 10 µM | TK-10 > 10 µM | UO-31 > 10 µM

O=[N+]([O-])c1cc(-[n+]2cc([O-])on2)ccc1Cl
inactive: BT-549 19.9 µM | CCRF-CEM 23.6 µM | COLO 205 27.7 µM | EKVX 19 µM | HL-60 35 µM | HOP-92 19.2 µM | HT-29 15.1 µM | LOX IMVI 17.9 µM | Malme-3M 13.6 µM | NCI-H226 83.8 µM | NCI-H23 13.7 µM | NCI-H460 34.2 µM | NCI-H522 17.8 µM | OVCAR-4 14 µM | OVCAR-8 20.6 µM | RPMI-8226 24.3 µM | SNB-75 25.8 µM | TK-10 18.6 µM | UO-31 17.3 µM

CC(C)Cn1cnc2c(SCc3ccccn3)nc(N)nc21
inactive: BT-549 > 100 µM | CCRF-CEM > 100 µM | COLO 205 > 100 µM | EKVX > 100 µM | HL-60 > 100 µM | HOP-92 > 100 µM | HT-29 > 100 µM | LOX IMVI > 100 µM | Malme-3M > 100 µM | NCI-H226 > 100 µM | NCI-H23 > 100 µM | NCI-H460 > 100 µM | NCI-H522 > 100 µM | OVCAR-4 > 100 µM | OVCAR-8 > 100 µM | RPMI-8226 > 100 µM | SNB-75 51.9 µM | TK-10 > 100 µM | UO-31 > 100 µM

CC1(C)CC2=C(Sc3ccccc3N2)C(=O)C1C(=O)C(=O)Nc1cc(Cl)ccc1Cl (configuration not stated)
inactive: BT-549 > 100 µM | CCRF-CEM > 100 µM | COLO 205 > 100 µM | EKVX > 100 µM | HL-60 > 100 µM | HOP-92 > 100 µM | HT-29 77.6 µM | LOX IMVI > 100 µM | MOLT-4 60 µM | Malme-3M > 100 µM | NCI-H226 > 100 µM | NCI-H23 > 100 µM | NCI-H460 14.9 µM | NCI-H522 > 100 µM | OVCAR-4 30.1 µM | OVCAR-8 > 100 µM | RPMI-8226 > 100 µM | SNB-75 38.2 µM | UO-31 > 100 µM

CCc1nnc(S)n1/N=C\c1ccc(-c2ccccc2[N+](=O)[O-])o1
inactive: BT-549 28.8 µM | CCRF-CEM 42.1 µM | COLO 205 29.9 µM | EKVX 21.1 µM | HL-60 35.6 µM | HOP-92 49.3 µM | HT-29 35.7 µM | LOX IMVI 28 µM | MOLT-4 19.4 µM | Malme-3M 85.5 µM | NCI-H226 12.1 µM | NCI-H23 33.3 µM | NCI-H522 31.6 µM | OVCAR-4 44.8 µM | OVCAR-8 33.1 µM | RPMI-8226 13.2 µM | SNB-75 32.1 µM | TK-10 > 100 µM | UO-31 41.5 µM

O=S1(=O)c2ccccc2C(Nc2ccccc2)N1c1ccccc1 (configuration not stated)
inactive: BT-549 58.9 µM | CCRF-CEM 63.4 µM | EKVX > 100 µM | HL-60 85.7 µM | HOP-92 38.5 µM | HT-29 > 100 µM | LOX IMVI > 100 µM | MOLT-4 50.4 µM | Malme-3M > 100 µM | NCI-H226 > 100 µM | NCI-H23 > 100 µM | NCI-H460 72.9 µM | NCI-H522 24.7 µM | OVCAR-4 67.6 µM | OVCAR-8 > 100 µM | RPMI-8226 > 100 µM | SNB-75 > 100 µM | TK-10 > 100 µM | UO-31 68.1 µM

CC(=O)O[C@@]12[C@@H]3O[C@@]4(O)C[C@]5(C)[C@H]6C[C@@](C(C)C)(O[C@H]5c5ccoc5)O[C@H]1[C@]6(C4)O[C@]2(O)C(C)=CC3(C)C
inactive: BT-549 > 100 µM | CCRF-CEM > 100 µM | COLO 205 > 100 µM | EKVX > 100 µM | HL-60 > 100 µM | HOP-92 > 100 µM | HT-29 > 100 µM | LOX IMVI > 100 µM | MOLT-4 > 100 µM | Malme-3M > 100 µM | NCI-H226 > 100 µM | NCI-H23 > 100 µM | NCI-H522 78.5 µM | OVCAR-4 > 100 µM | OVCAR-8 > 100 µM | RPMI-8226 > 100 µM | SNB-75 75.9 µM | TK-10 > 100 µM | UO-31 > 100 µM

CC(C)OC(=O)NCCn1cc(-c2ccccc2)nn1
inactive: BT-549 > 100 µM | CCRF-CEM > 100 µM | COLO 205 > 100 µM | EKVX > 100 µM | HL-60 > 100 µM | HOP-92 > 100 µM | HT-29 > 100 µM | LOX IMVI > 100 µM | MOLT-4 > 100 µM | Malme-3M > 100 µM | NCI-H226 > 100 µM | NCI-H23 > 100 µM | NCI-H460 > 100 µM | NCI-H522 > 100 µM | OVCAR-4 > 100 µM | OVCAR-8 > 100 µM | RPMI-8226 > 100 µM | SNB-75 > 100 µM | TK-10 > 100 µM

— ChEMBL document CHEMBL1201862, “PubChem BioAssay data set” (2004)
